Reference: US20240382435A1, “NON-CERULOPLASMIN BOUND COPPER LEVEL MONITORING” (ORPHALAN S.A., priority 2021, published 2024)

Key:
[1] = test system: patients with Wilson's Disease; assay: Serum NCC by copper speciation assay, randomized open-label clinical study (Example 3); format: in vivo, human
Description: 1.95 mL of rhodium internal standard solution containing 1% TMAH/1% EDTA was combined with 50 μL of human serum in a 15 mL polypropylene tube, capped and rotary mixed for at least 30 minutes. The processed sample was then analysed by ICP-MS on an Agilent 7900x inductively coupled plasma mass spectrometer.
The samples were defrosted and equilibrated to room temperature prior to use, and vortex mixed for approximately 5 seconds. 80 μL of 50 mM Tris-HCl (pH 7.4) buffer solution was combined with 20 μL of the clinical sample, blank or reference standard in a 0.5 mL Eppendorf tube (protein low bind). The diluted sample (100 μL) was transferred to a 0.3 mL polypropylene LC vial and sealed with a screw cap. An aliquot (50 μL) of each processed sample was then analysed by LC-ICP-MS on an Agilent 8900x inductively coupled plasma mass spectrometer.
Speciation analysis of Cu-containing species in the serum samples was performed by an anion exchange high performance liquid chromatography (AE HPLC) column (GE Healthcare MonoQ 5/50 GL, stationary phase (10 μm; 5×50 mm)) with an ammonium acetate gradient (0-250 mM) for 20 min. A flow rate of 1.0 mL/min was used. The chromatographic separation was performed at 25° C. Detection of the eluting Cu species was achieved using a collision/reaction cell Agilent Technologies 8900x ICP-MS spectrometer. The isotopes 63Cu and 65Cu were monitored in time resolved mode analysis using an integration time of 0.3 sec. 63Cu is the most abundant isotope and therefore this isotope was used to quantify copper by LC-ICP-MS.
Efficacy was assessed and treatments were monitored primarily using total copper analysis and a copper speciation assay as outlined in Examples 1 and 2 to determine serum NCC levels.
Eligible patients were clinically stable with their standard of-care D penicillamine chelation therapy for at least 1 year. These patients entered a 12-Week Penicillamine Baseline Period (from study visits on Day 1 to Week 12). During this time, all patients continued their current D penicillamine regimen under study conditions. At the end of the Penicillamine Baseline Period, patients who fulfilled the protocol definition of being adequately controlled and tolerating D penicillamine were randomized in a 1:1 ratio to receive either TETA 4HCl or to continue to receive D penicillamine during a 24-Week Post-Randomization Period (from study visits Week 12 to Week 36).
The primary efficacy endpoint was the serum NCC concentration (in μg/L) at Week 36. Serum NCC concentrations were determined using a copper speciation serum NCC assay using the methodology outlined in Examples 1 and 2. The primary efficacy analysis utilized the serum NCC values from all study visits that were analyzed using a restricted maximum likelihood based general linear model for correlated data. The correlation due to repeated measures was modelled by specifying the variance covariance matrix.

[2] = test system: patients with Wilson's Disease; assay: 24-hour urinary copper excretion (UCE), clinical study of Example 3; format: in vivo, human; settings: ITT
Description: The number and the proportion of patients with a serum NCC value that matched the threshold (eg, serum NCC≤50 μg/L) were presented along with the 95% confidence interval of the proportion by visit and treatment arm. The proportions in the 2 arms were compared using Fisher's exact test. The same approach was applied on 24-hour UCE.

[3] = test system: patients with Wilson's Disease; assay: Clinical Global Impression of Change (CGIC) rating scale, clinical study of Example 3; format: in vivo, human; settings: 7-point scale, ITT
Excerpt: The CGIC rating scale, a 7-point ordinal score, was summarized by visit and treatment arm, and compared between arms using a stratified Cochran-Mantel-Haenszel test. The UWDRS, a continuous measure, was summarized by visit and treatment arm with descriptive statistics for absolute values and the changes from baseline.

[4] = test system: patients with Wilson's Disease; assay: Baseline ALT, clinical study of Example 3; settings: baseline (Penicillamine Baseline Period), by treatment arm
Excerpt: For change from baseline in laboratory measurements, “baseline” was defined as the last non-missing value during the Penicillamine Baseline Period, including unscheduled values.

[5] = Day 1, 12-Week Penicillamine Baseline Period (all patients on D-penicillamine), ITT population, by arm
[6] = Week 4, Penicillamine Baseline Period (all patients on D-penicillamine), ITT
[7] = Week 8, Penicillamine Baseline Period (all patients on D-penicillamine), ITT
[8] = Week 12 (randomization), end of Penicillamine Baseline Period, ITT
[9] = Week 16, Post-Randomization Period, ITT
[10] = Week 20, Post-Randomization Period, ITT
[11] = Week 24, Post-Randomization Period, ITT
[12] = Week 28, Post-Randomization Period, ITT
[13] = Week 32, Post-Randomization Period, ITT
[14] = Week 36, Post-Randomization Period, ITT
[15] = Day 1, 12-Week Penicillamine Baseline Period (all patients on D-penicillamine), by arm
[16] = Week 4, Penicillamine Baseline Period (all patients on D-penicillamine)
[17] = Week 12 (randomization), end of Penicillamine Baseline Period
[18] = Week 16, 24-Week Post-Baseline Period
[19] = Week 24, 24-Week Post-Baseline Period
[20] = Week 36, 24-Week Post-Baseline Period
[21] = Week 12, Penicillamine Baseline Period
[22] = Week 16, Post-Randomization Period
[23] = Week 24, Post-Randomization Period
[24] = Week 36, Post-Randomization Period

## Cl.Cl.Cl.Cl.NCCNCCNCCN [TETA 4HCl, trientine tetrahydrochloride]
[1]; [5]
  serum NCC value, mean: 60.7 µg/L
  serum NCC value, median: 58.2 µg/L
[1]; [6]
  serum NCC value, mean: 57.6 µg/L
  serum NCC value, median: 58.5 µg/L
[1]; [7]
  serum NCC value, mean: 70.0 µg/L
  serum NCC value, median: 61.5 µg/L
[1]; [8]
  serum NCC value, mean: 68.5 µg/L
  serum NCC value, median: 61.1 µg/L
[1]; Week 16, 24-Week Post-Randomization Period, ITT
  serum NCC value, mean: 78.0 µg/L
[1]; [9]
  serum NCC change from baseline, mean: 9.4 µg/L
  serum NCC change from baseline, median: 9.2 µg/L
  serum NCC value, median: 69.6 µg/L
[1]; [10]
  serum NCC change from baseline, mean: 8.2 µg/L
  serum NCC change from baseline, median: 4.1 µg/L
  serum NCC value, mean: 76.8 µg/L
  serum NCC value, median: 60.8 µg/L
[1]; [11]
  serum NCC change from baseline, mean: -0.4 µg/L
  serum NCC change from baseline, median: 3.0 µg/L
  serum NCC value, mean: 60.3 µg/L
  serum NCC value, median: 57.0 µg/L
[1]; [12]
  serum NCC change from baseline, mean: -0.8 µg/L
  serum NCC change from baseline, median: 0.0 µg/L
  serum NCC value, mean: 69.5 µg/L
  serum NCC value, median: 62.4 µg/L
[1]; [13]
  serum NCC change from baseline, mean: -4.6 µg/L
  serum NCC change from baseline, median: 0.7 µg/L
  serum NCC value, mean: 64.0 µg/L
  serum NCC value, median: 60.0 µg/L
[1]; Week 36 (primary efficacy endpoint), Post-Randomization Period, ITT
  serum NCC value, mean: 57.6 µg/L
[1]; [14]
  serum NCC change from baseline, mean: -11.0 µg/L
  serum NCC change from baseline, median: -6.9 µg/L
  serum NCC value, median: 51.1 µg/L
[1]; copper speciation assay, Table 4
  serum NCC levels, comparison between arms: very similar
[2]; [15]
  24-hour UCE value, mean: 550.8 μg/24 hours
  24-hour UCE value, median: 546.6 μg/24 hours
[2]; [16]
  24-hour UCE value, mean: 545.4 μg/24 hours
  24-hour UCE value, median: 436.1 μg/24 hours
[2]; [17]
  24-hour UCE value, mean: 535.1 μg/24 hours
  24-hour UCE value, median: 590.4 μg/24 hours
[2]; [18]
  24-hour UCE change from baseline, mean: −223 μg/24 hours
  24-hour UCE change from baseline, median: −221 μg/24 hours
  24-hour UCE value, mean: 316.4 μg/24 hours
  24-hour UCE value, median: 265.6 μg/24 hours
[2]; [19]
  24-hour UCE change from baseline, mean: −247 μg/24 hours
  24-hour UCE change from baseline, median: −199 μg/24 hours
  24-hour UCE value, mean: 295.7 μg/24 hours
  24-hour UCE value, median: 257.8 μg/24 hours
[2]; [20]
  24-hour UCE change from baseline, mean: −258 μg/24 hours
  24-hour UCE change from baseline, median: −231 μg/24 hours
  24-hour UCE value, mean: 289.4 μg/24 hours
  24-hour UCE value, median: 234.8 μg/24 hours
[3]; Week 4, Penicillamine Baseline Period (all patients on D-penicillamine), 4 = no change
  Clinical Global Impression of Change Scale, mean: 4.0
[3]; [16]
  Clinical Global Impression of Change Scale, median: 4.0
[3]; [21]
  Clinical Global Impression of Change Scale, mean: 4.0
  Clinical Global Impression of Change Scale, median: 4.0
[3]; [22]
  Clinical Global Impression of Change Scale, mean: 4
  Clinical Global Impression of Change Scale, median: 4.0
[3]; [23]
  Clinical Global Impression of Change Scale, mean: 4.0
  Clinical Global Impression of Change Scale, median: 4.0
[3]; [24]
  Clinical Global Impression of Change Scale, mean: 3.9
  Clinical Global Impression of Change Scale, median: 4.0
[4]
  ALT, mean baseline: 34.7 U/L
